Results: US20030130180A1, “Utilization of an aminopeptidase inhibitor” (priority 2000, published 2003)

Test system: Karpas cells
Assay: Detection of surface protein combinations of the protein network on untreated (V1) and actinonin-treated (V2) Karpas cells
Format: cell-based
Settings: for V2 no. of cells: actinonin-treated Karpas cells
Excerpt: Principally, detecting of the surface protein combinations may comprise procedural steps of an automated method for determining molecular classes, molecular groups or molecular parts in a solid or liquid object according to DE 197 09 348 C. In these steps, surface proteins may be examined and measured in one and the same object, i.e. in a sample of immune cells and/or tumor cells for example, by sequentially applying reagent solutions Yn (n=1,2,3, . . . N) by means of an automated apparatus, said procedural steps being: I. taking a first reagent solution Y1 from a vessel containing the reagent solution, II. applying said reagent solution Y1 to the object which is on an object slide, III. allowing the reagent solution to react for an automatically set period of time, IV. recording at least one individual labeling pattern of the object previously labeled with said first reagent solution Y1, V. repeating steps I-IV by applying said first reagent solution Y1 or a second reagent solution Y2 or a mixture of said first and second reagent solutions, and VI. repeating steps I to V with further reagent solutions Yn (n=2,3, . . . N) or a mixture thereof and whereby the labeling distribution patterns obtained in each cycle of the method are turned into a complex molecular combination pattern of the object to be examined by computer-aided image overlay. From this combination pattern, information may be gained on the presence of the above mentioned proteins, thus also allowing detection of the surface protein combinations, if the reagent solutions used contain labeled substances directed against the proteins in question. In numerous examinations, it was possible to identify the 30 cell surface proteins already listed above which belong to a specific protein network controlling the early polarization stages of tumor cells and immune cells. In a further examination, surface protein combinations of this protein network of Karpas cells were detected, both in untreated form and after treatment with the aminopeptidase inhibitor actinonin. For this purpose, two groups V1 and V2 of Karpas cells were formed, with the cells of group Vl remaining untreated, while the cells of group V2 were treated with actinonin. Table 2 lists those surface protein combinations which are present both in the actinonin-treated cells and in the untreated cells. However, this table and the further tables 3 and 4 only give examples of 18 of the 30 proteins, with the detected proteins being designated 1 and the non-detected proteins being designated 0. The proteins are continuously numbered 1 to 18, with the nomenclature being notable from table 1. [table] The cell numbers stated in tables 2 to 4 refer to each 1,000 cells examined in groups V1 and V2. Table 3 lists the surface protein combinations which only occur in the untreated Karpas cells and are never found in the actinonin-treated Karpas cells. The number of protein combinations listed in this table 3 amounts to 131. Finally, table 4 exclusively lists those surface protein combinations which occur exclusively in the actinonin-treated Karpas cells. It may be gathered from tables 2 to 4 that, if one examines merely 18 proteins of the 30 proteins, a total of 394 different surface protein combinations will occur, with a total of 334 different combinations occurring in the untreated cells and a total of 263 different combinations being detected in the treated cells.

CCCCC[C@H](CC(=O)NO)C(=O)N[C@H](C(=O)N1CCC[C@H]1CO)C(C)C [actinonin]
V2 No. of cells In 1/1000 (actinonin-treated Karpas cells (V2), surface protein combination No. 118, binary code 000100010100000000): 0.0 1/1000
V2 No. of cells In 1/1000 (actinonin-treated Karpas cells (V2), surface protein combination No. 119, binary code 000100010001011000): 0.0 1/1000
V2 No. of cells In 1/1000 (actinonin-treated Karpas cells (V2), surface protein combination No. 120, binary code 000100001001001000): 0.0 1/1000
V2 No. of cells In 1/1000 (actinonin-treated Karpas cells (V2), surface protein combination No. 121, binary code 000100000101001000): 0.0 1/1000
V2 No. of cells In 1/1000 (actinonin-treated Karpas cells (V2), surface protein combination No. 122, binary code 000100000101000000): 0.0 1/1000
V2 No. of cells In 1/1000 (actinonin-treated Karpas cells (V2), surface protein combination No. 123, binary code 000100000011000000): 0.0 1/1000
V2 No. of cells In 1/1000 (actinonin-treated Karpas cells (V2), surface protein combination No. 124, binary code 000000011101011000): 0.0 1/1000
V2 No. of cells In 1/1000 (actinonin-treated Karpas cells (V2), surface protein combination No. 125, binary code 000000011000001000): 0.0 1/1000
V2 No. of cells In 1/1000 (actinonin-treated Karpas cells (V2), surface protein combination No. 126, binary code 000000010100000100): 0.0 1/1000
V2 No. of cells In 1/1000 (actinonin-treated Karpas cells (V2), surface protein combination No. 127, binary code 000000010000011000): 0.0 1/1000
V2 No. of cells In 1/1000 (actinonin-treated Karpas cells (V2), surface protein combination No. 128, binary code 000000010000000100): 0.0 1/1000
V2 No. of cells In 1/1000 (actinonin-treated Karpas cells (V2), surface protein combination No. 129, binary code 000000001011000000): 0.0 1/1000
V2 No. of cells In 1/1000 (actinonin-treated Karpas cells (V2), surface protein combination No. 130, binary code 000000000001001100): 0.0 1/1000
V2 No. of cells In 1/1000 (actinonin-treated Karpas cells (V2), surface protein combination No. 131, binary code 000000000001000100): 0.0 1/1000
V2 no. of cells In 1/1OOO, total (actinonin-treated Karpas cells (V2), total over all 203 protein combinations of Table 2): 990.9 1/1OOO
V2 No. of cells In 1/1000, total (actinonin-treated Karpas cells (V2), total over the 131 surface protein combinations of Table 3): 0 1/1000
V2 no. of cells (protein code No. 1, proteins 1-18 binary 000000000000000000): 153.2 1/1OOO
V2 no. of cells (protein code No. 2, proteins 1-18 binary 001000010101001000): 91.9 1/1OOO
V2 no. of cells (protein code No. 3, proteins 1-18 binary 001000010001000000): 57.6 1/1OOO
V2 no. of cells (protein code No. 4, proteins 1-18 binary 000000010001000000): 62.2 1/1OOO
V2 no. of cells (protein code No. 5, proteins 1-18 binary 001000010001001000): 37.9 1/1OOO
V2 no. of cells (protein code No. 6, proteins 1-18 binary 001000010101000000): 44.3 1/1OOO
V2 no. of cells (protein code No. 7, proteins 1-18 binary 001100010101001000): 37.6 1/1OOO
V2 no. of cells (protein code No. 8, proteins 1-18 binary 000000010000000000): 41.8 1/1OOO
V2 no. of cells (protein code No. 9, proteins 1-18 binary 001000010111001000): 31.4 1/1OOO
V2 no. of cells (protein code No. 10, proteins 1-18 binary 001100010111011000): 29.7 1/1OOO
V2 no. of cells (protein code No. 11, proteins 1-18 binary 000000000001000000): 29.3 1/1OOO
V2 no. of cells (protein code No. 12, proteins 1-18 binary 001100010111001000): 24.2 1/1OOO
V2 no. of cells (protein code No. 13, proteins 1-18 binary 001000010011001000): 15.4 1/1OOO
V2 no. of cells (protein code No. 14, proteins 1-18 binary 000000010101000000): 22.3 1/1OOO
V2 no. of cells (protein code No. 15, proteins 1-18 binary 101100010111011000): 17.3 1/1OOO
V2 no. of cells (protein code No. 16, proteins 1-18 binary 001000010111011000): 15.0 1/1OOO
V2 no. of cells (protein code No. 17, proteins 1-18 binary 001000010101011000): 15.5 1/1OOO
V2 no. of cells (protein code No. 18, proteins 1-18 binary 001100010101011000): 9.7 1/1OOO
V2 no. of cells (protein code No. 19, proteins 1-18 binary 000000010101001000): 13.4 1/1OOO
V2 no. of cells (protein code No. 20, proteins 1-18 binary 000000000100000000): 14.5 1/1OOO
V2 no. of cells (protein code No. 21, proteins 1-18 binary 001100010001001000): 6.3 1/1OOO
V2 no. of cells (protein code No. 22, proteins 1-18 binary 001000010011000000): 6.7 1/1OOO
V2 no. of cells (protein code No. 23 (second line so numbered), proteins 1-18 binary 000000000101000000): 11.0 1/1OOO
V2 no. of cells (protein code No. 23, proteins 1-18 binary 001000000001000000): 7.4 1/1OOO
V2 no. of cells (protein code No. 24, proteins 1-18 binary 001000010000000000): 5.7 1/1OOO
V2 no. of cells (protein code No. 25, proteins 1-18 binary 000000000000001000): 7.3 1/1OOO
V2 no. of cells (protein code No. 27, proteins 1-18 binary 010000001100000000): 7.5 1/1OOO
V2 no. of cells (protein code No. 28, proteins 1-18 binary 000000010100000000): 8.9 1/1OOO
V2 no. of cells (protein code No. 29, proteins 1-18 binary 000000010001001000): 7.0 1/1OOO
V2 no. of cells (protein code No. 30, proteins 1-18 binary 001100010011001000): 4.0 1/1OOO
V2 no. of cells (protein code No. 31, proteins 1-18 binary 101000010111011000): 2.8 1/1OOO
V2 no. of cells (protein code No. 32, proteins 1-18 binary 000000001000000000): 6.1 1/1OOO
V2 no. of cells (protein code No. 33, proteins 1-18 binary 001000010111000000): 5.3 1/1OOO
V2 no. of cells (protein code No. 34, proteins 1-18 binary 001000010011011000): 3.2 1/1OOO
V2 no. of cells (protein code No. 35, proteins 1-18 binary 001000010001011000): 4.8 1/1OOO
V2 no. of cells (protein code No. 37, proteins 1-18 binary 010000001100001000): 3.9 1/1OOO
V2 no. of cells (protein code No. 38 (first line so numbered), proteins 1-18 binary 000000001100000000): 5.4 1/1OOO
V2 no. of cells (protein code No. 38 (second line so numbered), proteins 1-18 binary 001000011101001000): 4.3 1/1OOO
V2 no. of cells (protein code No. 39, proteins 1-18 binary 000000010011000000): 2.5 1/1OOO
V2 no. of cells (protein code No. 40, proteins 1-18 binary 001000000101000000): 4.7 1/1OOO
V2 no. of cells (protein code No. 41, proteins 1-18 binary 001100010011011000): 4.0 1/1OOO
V2 no. of cells (protein code No. 42, proteins 1-18 binary 001100010101000000): 0.8 1/1OOO
V2 no. of cells (protein code No. 43, proteins 1-18 binary 001000000000000000): 2.8 1/1OOO
V2 no. of cells (protein code No. 44, proteins 1-18 binary 001000011101000000): 3.7 1/1OOO
V2 no. of cells (protein code No. 45, proteins 1-18 binary 001100010001000000): 0.6 1/1OOO
V2 no. of cells (protein code No. 46, proteins 1-18 binary 001000011001000000): 2.5 1/1OOO
V2 no. of cells (protein code No. 47, proteins 1-18 binary 010000001100001100): 2.2 1/1OOO
V2 no. of cells (protein code No. 48, proteins 1-18 binary 101100010101011000): 2.2 1/1OOO
V2 no. of cells (protein code No. 49, proteins 1-18 binary 001000010100000000): 2.7 1/1OOO
V2 no. of cells (protein code No. 50, proteins 1-18 binary 011000011101001000): 2.4 1/1OOO
V2 no. of cells (protein code No. 51, proteins 1-18 binary 001000011111001000): 2.0 1/1OOO
V2 no. of cells (protein code No. 52, proteins 1-18 binary 001100010001011000): 1.0 1/1OOO
V2 no. of cells (protein code No. 53, proteins 1-18 binary 001000010000001000): 1.0 1/1OOO
